Tests used:
OVCAR-8 = assay: Log of molar concentration leading to 50% cell death against ovarian cancer OVCAR-8 cell line was reported; assay type: functional; settings: Homo sapiens, read-out: Log LC50 (the source's name) (converted)
MDA-N = assay: In vitro total growth inhibition against breast cancer MDA-N cell lines was reported.; assay type: functional; settings: Homo sapiens, read-out: Log TGI (converted)
SNB-19 = assay: In vitro total growth inhibition against CNS cancer SNB-19 cell lines was reported.; assay type: functional; settings: Homo sapiens, read-out: Log TGI (converted)
SK-MEL-28 = assay: Log of molar concentration leading to 50% cell death against melanoma SK-MEL-28 cell line was reported; assay type: functional; settings: Homo sapiens, read-out: Log LC50 (the source's name) (converted)
MDA-MB-231 [1] = assay: Log of molar concentration leading to 50% cell death against breast cancer MDA-MB-231/ATCC cell line was reported; assay type: functional; settings: Homo sapiens, read-out: Log LC50 (the source's name) (converted)
HL-60 [2] = assay: In vitro total growth inhibition against leukemia HL-60(TB) cell lines was reported.; assay type: functional; settings: Homo sapiens, read-out: Log TGI (converted)
EKVX [3] = assay: Log of molar concentration leading to 50% cell death against non-small-cell lung cancer EKVX cell line was reported; assay type: functional; settings: Homo sapiens, read-out: Log LC50 (the source's name) (converted)
NCI-H46 = assay: In vitro growth inhibition against non-small-cell lung cancer […] cell line was reported.; assay type: functional; settings: Homo sapiens
COLO 205 [4] = assay: In vitro growth inhibition against colon cancer COLO 205 cell line was reported.; assay type: functional; settings: Homo sapiens
KM12 = assay: In vitro total growth inhibition against colon cancer KM12 cell lines was reported.; assay type: functional; settings: Homo sapiens, read-out: Log TGI (converted)
IGROV-1 [5] = assay: Log of molar concentration leading to 50% cell death against ovarian cancer IGROV1 cell line was reported; assay type: functional; settings: Homo sapiens, read-out: Log LC50 (the source's name) (converted)
HOP-62 [6] = assay: In vitro growth inhibition against non-small-cell lung cancer HOP-62 cell line was reported.; assay type: functional; settings: Homo sapiens
SF-295 [7] = assay: Log of molar concentration leading to 50% cell death against CNS cancer SF-295 cell line was reported; assay type: functional; settings: Homo sapiens, read-out: Log LC50 (the source's name) (converted)
MDA-MB-435 [8] = assay: In vitro growth inhibition against breast cancer MDA-MB-435 cell line was reported.; settings: Homo sapiens
LOX IMVI = assay: In vitro growth inhibition against melanoma LOX IMVI cell line was reported.; assay type: functional; settings: Homo sapiens
NCI-H226 = assay: In vitro growth inhibition against non-small-cell lung cancer NCI-H226 cell line was reported.; assay type: functional; settings: Homo sapiens
HOP-62 [9] = assay: Log of molar concentration leading to 50% cell death against non-small-cell lung cancer HOP-62 cell line was reported; assay type: functional; settings: Homo sapiens, read-out: Log LC50 (the source's name) (converted)
NCI-H23 = assay: In vitro growth inhibition against non-small-cell lung cancer NCI-H23 cell line was reported.; assay type: functional; settings: Homo sapiens
T47D = assay: In vitro growth inhibition against breast cancer […] cell line was reported.; assay type: functional; settings: Homo sapiens
HT-29 = assay: In vitro growth inhibition against colon cancer HT-29 cell line was reported.; assay type: functional; settings: Homo sapiens
COLO 205 [10] = assay: Log of molar concentration leading to 50% cell death against colon cancer COLO 205 cell line was reported; assay type: functional; settings: Homo sapiens, read-out: Log LC50 (the source's name) (converted)
DU-145 [11] = assay: In vitro total growth inhibition against prostate cancer […] cell lines was reported.; assay type: functional; settings: Homo sapiens, read-out: Log TGI (converted)
SR [12] = assay: In vitro total growth inhibition against leukemia SR cell lines was reported.; assay type: functional; settings: Homo sapiens, read-out: Log TGI (converted)
UACC-62 = assay: In vitro total growth inhibition against melanoma UACC-62 cell lines was reported.; assay type: functional; settings: Homo sapiens, read-out: Log TGI (converted)
EKVX [13] = assay: In vitro growth inhibition against non-small-cell lung cancer EKVX cell line was reported.; assay type: functional; settings: Homo sapiens
DU-145 [14] = assay: In vitro growth inhibition against prostate cancer […] cell line was reported.; assay type: functional; settings: Homo sapiens
A498 = assay: In vitro total growth inhibition against renal cancer A-498 cell lines was reported.; assay type: functional; settings: Homo sapiens, read-out: Log TGI (converted)
UACC-257 = assay: In vitro total growth inhibition against melanoma UACC-257 cell line was reported.; assay type: functional; settings: Homo sapiens
NCI-H322M [15] = assay: Log of molar concentration leading to 50% cell death against non-small-cell lung cancer NCI-H322M cell line was reported; assay type: functional; settings: Homo sapiens, read-out: Log LC50 (the source's name) (converted)
NCI/ADR-RES = assay: In vitro total growth inhibition against breast cancer NCI/ADR-RES cell lines was reported.; assay type: functional; settings: Homo sapiens, read-out: Log TGI (converted)
SR [16] = assay: In vitro growth inhibition against leukemia SR cell line was reported.; assay type: functional; settings: Homo sapiens
HCC 2998 = assay: Log of molar concentration leading to 50% cell death against colon cancer HCC2998 cell line was reported; assay type: functional; settings: Homo sapiens, read-out: Log LC50 (the source's name) (converted)
MDA-MB-231 [17] = assay: In vitro total growth inhibition against breast cancer MDA-MB-231/ATCC cell lines was reported.; assay type: functional; settings: Homo sapiens, read-out: Log TGI (converted)
SF-295 [18] = assay: In vitro growth inhibition against CNS cancer SF-295 cell line was reported.; assay type: functional; settings: Homo sapiens
SF-539 = assay: In vitro growth inhibition against CNS cancer SF-539 cell line was reported.; assay type: functional; settings: Homo sapiens
PC-3 [19] = assay: Log of molar concentration leading to 50% cell death against prostate cancer PC-3 cell line was reported; assay type: functional; settings: Homo sapiens, read-out: Log LC50 (the source's name) (converted)
MOLT-4 = assay: In vitro total growth inhibition against leukemia MOLT-4 cell lines was reported.; assay type: functional; settings: Homo sapiens, read-out: Log TGI (converted)
SK-MEL-5 = assay: In vitro growth inhibition against melanoma SK-MEL-5 cell line was reported.; assay type: functional; settings: Homo sapiens
HL-60 [20] = assay: Log of molar concentration leading to 50% cell death against leukemia HL-60(TB) cell line was reported; assay type: functional; settings: Homo sapiens, read-out: Log LC50 (the source's name) (converted)
CCRF-CEM [21] = assay: In vitro total growth inhibition against leukemia CCRF cell lines was reported.; assay type: functional; settings: Homo sapiens, read-out: Log TGI (converted)
U-251 = assay: In vitro total growth inhibition against CNS cancer U251 cell lines was reported.; assay type: functional; settings: Homo sapiens, read-out: Log TGI (converted)
Tumor Cell line [22] = assay: In vitro inhibition of 50% cell growth was reported as log of molar concentration for 60 cell lines.; assay type: functional; settings: Homo sapiens
HOP-62 [23] = assay: In vitro total growth inhibition against non-small-cell lung cancer HOP-62 cell lines was reported.; assay type: functional; settings: Homo sapiens, read-out: Log TGI (converted)
Tumor Cell line [24] = assay: In vitro total growth inhibition for 50 cell lines was reported as log of molar concentration; assay type: functional, Homo sapiens
PC-3 [25] = assay: In vitro growth inhibition against prostate cancer PC-3 cell line was reported.; assay type: functional; settings: Homo sapiens
ACHN = assay: In vitro growth inhibition against renal cancer ACHN cell line was reported.; assay type: functional; settings: Homo sapiens
MDA-MB-435 [26] = assay: In vitro total growth inhibition against breast cancer MDA-MB-435 cell lines was reported.; settings: Homo sapiens, read-out: Log TGI (converted)
HOP-92 = assay: In vitro growth inhibition against non-small-cell lung cancer HOP-92 cell line was reported.; assay type: functional; settings: Homo sapiens
CCRF-CEM [27] = assay: In vitro growth inhibition against leukemia CCRF-CEM cell line was reported.; assay type: functional; settings: Homo sapiens
HCT-116 = assay: In vitro total growth inhibition against colon cancer HCT116 cell lines was reported.; assay type: functional; settings: Homo sapiens, read-out: Log TGI (converted)
OVCAR-3 = assay: In vitro growth inhibition against ovarian cancer OVCAR-3 cell line was reported.; assay type: functional; settings: Homo sapiens
SNB-75 = assay: In vitro total growth inhibition against CNS cancer SNB-75 cell lines was reported.; assay type: functional; settings: Homo sapiens, read-out: Log TGI (converted)
HCT-15 = assay: In vitro total growth inhibition against colon cancer HCT-15 cell lines was reported.; assay type: functional; settings: Homo sapiens, read-out: Log TGI (converted)
NCI-H322M [28] = assay: In vitro growth inhibition against non-small-cell lung cancer […] cell line was reported.; assay type: functional; settings: Homo sapiens
M14 = assay: In vitro total growth inhibition against melanoma M14 cell lines was reported.; assay type: functional; settings: Homo sapiens, read-out: Log TGI (converted)
RXF 393 = assay: Log of molar concentration leading to 50% cell death against renal cancer RXF 393 cell line was reported; assay type: functional; settings: Homo sapiens, read-out: Log LC50 (the source's name) (converted)
BT-549 = assay: In vitro total growth inhibition against breast cancer BT 549 cell line was reported.; assay type: functional; settings: Homo sapiens, read-out: Log TGI (converted)
Hs-578T = assay: In vitro growth inhibition against breast cancer HS 578T cell line was reported.; assay type: functional; settings: Homo sapiens
IGROV-1 [29] = assay: In vitro total growth inhibition against ovarian cancer IGROV1 cell lines was reported.; assay type: functional; settings: Homo sapiens, read-out: Log TGI (converted)

SMILES: O=C(Nc1cccc2nsnc12)c1cc2c(cc1Cl)Sc1nccn1S2(=O)=O
- CC50 (OVCAR-8): 38 µM
- TGI (MDA-N): 27.5 µM
- TGI (SNB-19): 24.5 µM
- CC50 (SK-MEL-28): 46.8 µM
- CC50 (MDA-MB-231 [1]): 53.7 µM
- TGI (HL-60 [2]): 3.72 µM
- CC50 (EKVX [3]): 9.77 µM
- GI50 (NCI-H46): 2040 nM
- GI50 (COLO 205 [4]): 17.4 µM
- TGI (KM12): 3.89 µM
- CC50 (IGROV-1 [5]): 79.4 µM
- GI50 (HOP-62 [6]): 1660 nM
- CC50 (SF-295 [7]): 55 µM
- GI50 (MDA-MB-435 [8]): 8.13 µM
- GI50 (LOX IMVI): 5.25 µM
- GI50 (NCI-H226): 19.1 µM
- CC50 (HOP-62 [9]): 8.71 µM
- GI50 (NCI-H23): 11.7 µM
- GI50 (T47D): 1700 nM
- GI50 (HT-29): 2240 nM
- CC50 (COLO 205 [10]): 56.2 µM
- TGI (DU-145 [11]): 3.24 µM
- TGI (SR [12]): 4.79 µM
- TGI (UACC-62): 17.8 µM
- GI50 (EKVX [13]): 2290 nM
- GI50 (DU-145 [14]): 1740 nM
- TGI (A498): 26.3 µM
- GI50 (UACC-257): 1820 nM
- CC50 (NCI-H322M [15]): 5.75 µM
- TGI (NCI/ADR-RES): 38.9 µM
- GI50 (SR [16]): 2000 nM
- CC50 (HCC 2998): 55 µM
- TGI (MDA-MB-231 [17]): 24.5 µM
- GI50 (SF-295 [18]): 11.2 µM
- GI50 (SF-539): 2240 nM
- CC50 (PC-3 [19]): 6.46 µM
- TGI (MOLT-4): 9.33 µM
- GI50 (SK-MEL-5): 15.8 µM
- CC50 (HL-60 [20]): 7.41 µM
- TGI (CCRF-CEM [21]): 13.5 µM
- TGI (U-251): 15.8 µM
- GI50 (Tumor Cell line [22]): 45.7 µM
- TGI (HOP-62 [23]): 3.8 µM
- Log GTI (Tumor Cell line [24]): -4.31
- GI50 (PC-3 [25]): 1910 nM
- GI50 (ACHN): 12.6 µM
- TGI (MDA-MB-435 [26]): 49 µM
- GI50 (HOP-92): 5.89 µM
- GI50 (CCRF-CEM [27]): 3.24 µM
- TGI (HCT-116): 5.37 µM
- GI50 (OVCAR-3): 1780 nM
- TGI (SNB-75): 26.9 µM
- TGI (HCT-15): 21.4 µM
- GI50 (NCI-H322M [28]): 1780 nM
- TGI (M14): 46.8 µM
- CC50 (RXF 393): 56.2 µM
- TGI (BT-549): 32.4 µM
- GI50 (Hs-578T): 4.17 µM
- TGI (IGROV-1 [29]): 23.4 µM

Reference: ChEMBL document CHEMBL1135808, “A new type of mixed anhydride and its applications to the synthesis of 7-substituted 8-chloro-5,5-dioxoimidazo[1,2-b][1,4,2]benzodithiazines with in vitro antitumor activity” (2002)
